According to patent US20260200849A1, “CATIONIC LIPIDS AND PREPARATION METHOD THEREOF” (RiboX Therapeutics HK Limited, priority 2024, published 2026):

Key:
C57BL/6J mice = test: In vivo expression by IV, 1.0 mg/kg luciferase RNA-LNPs, whole-body and organ IVIS luminescence; details: Formulation No. 001, RNA No. 331; male C57BL/6J mice, 1.0 mg*kg−1 intravenous, 24-hours post injection
In short: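 Male C57BL/6J mice, 6-8 weeks old (N=3), received 1.0 mg*kg−1 firefly-luciferase RNA-LNPs IV. At 24 h post-dose, luciferin (15 mg/ml) was given IP, and whole-body, liver, spleen, kidney, small and large intestine luminescence was imaged by IVIS.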

MCP-1 = test: In vivo tolerability by IV: serum MCP-1 by Luminex; parameters: species or system C57BL/6J mice; details: Formulation No. 001, RNA No. 331, male C57BL/6J mice, 1.0 mg*kg/1 intravenous; for MCP-1 at 2 h: 2 hours post injection; for MCP-1 at 24 h: 24 hours post injection
In short: (§1)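 Male C57BL/6J mice aged 6-8 weeks (N=3) received 1.0 mg*kg−1 firefly-luciferase RNA-LNPs intravenously, with PBS as negative control. Serum taken at 2 and 24 h post-injection was assayed for MCP-1 and IL-6 by Luminex.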

[1] = LNP size and polydispersity index (PDI) by dynamic light scattering (Zetasizer); type: physicochemical; details: for Size (nm): Formulation No. 001 (Ionizable lipid:DSPC:cholesterol:DMG-PEG2000 = 50:10:38.5:1.5, N/P 6), RNA No. 331; for PDI: Formulation No. 001, RNA No. 331
Protocol: (§2) The LNP size and polydispersity index (PDI), determined by dynamic light scattering (DLS), and zeta potential were measured by a Zetasizer machine (Malvern). RNA concentration and encapsulation efficacy (EE %) were analyzed by the Quant-IT Ribogreen kit by calculating the percentage encapsulation at 100%—(RNA-LNPs/RNA-LNPs with Triton X-100).

Hep G2 cells [2] = test: In vitro expression: luciferase activity in Hep G2 cells transfected with RNA-LNPs; type: cell-based; details: Formulation No. 001, RNA No. 331 (firefly-luciferase), 100 ng/mL RNA-LNPs, 72 hours post transfection
Protocol: 2E5 Hep G2 cells were transfected with 100 ng/mL of RNA-LNPs encoding for firefly-luciferase. At 72 hours post transfection, the cells were washed and lysed. The luciferase expression (2-well repeat) was determined in the cell lysates with the luciferase assay reagent kit (Promega), according to the kit protocol, luciferase activity was measured by a luminometer.

[3] = RNA encapsulation efficacy (EE %) by Quant-IT Ribogreen kit; type: physicochemical; details: LNP, Formulation No. 001, RNA No. 331
Protocol: as §2

Hep G2 cells [4] = test: In vitro toxicity: Hep G2 cell viability by CellTiter-Glo; type: cell-based; details: Formulation No. 001, RNA No. 331, 1 μg/mL RNA-LNPs, 72 hours post transfection, cell only = 100%
Protocol: 2E5 Hep G2 cells were transfected with 1 μg/mL RNA-LNPs. At 72 hours post transfection, cell viability (2-well repeat) was determined with the CellTiter-Glo® reagent kit, according to the kit protocol, measured by a luminometer. Cell only as control (100%).
The cell viability was calculated according to the following formula: […]

Balb/c mice = test: In vivo expression by IV, 0.05 mg/kg luciferase RNA-LNPs, IVIS luminescence; details: Formulation No. 001, RNA No. 331; female Balb/c mice, 0.05 mg*kg−1 intravenous, 24-hours post injection
In short: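 IVIS bioluminescence was read after IP luciferin (15 mg/ml): whole-body at 24 and 72 h, or whole-body/liver/spleen at 24 h. Dosing was a single IV injection of 0.05 mg*kg−1 RNA-LNPs encoding firefly luciferase into 7-8 week old female Balb/c mice, N=3.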

IL-6 = test: In vivo tolerability by IV: serum IL-6 by Luminex; parameters: species or system C57BL/6J mice; details: Formulation No. 001, RNA No. 331, male C57BL/6J mice, 1.0 mg*kg/1 intravenous; for IL-6 at 2 h: 2 hours post injection; for IL-6 at 24 h: 24 hours post injection
In short: as §1

Row | Compound | Size (nm) [1] [nm] | PDI [1] | EE (%) [3] [%] | Kidney (p/s) (C57BL/6J mice) | Large intestine (p/s) (C57BL/6J mice) | Liver (p/s) (C57BL/6J mice) | Small intestine (p/s) (C57BL/6J mice) | Spleen (p/s) (C57BL/6J mice) | Whole body (p/s) (C57BL/6J mice) | MCP-1 at 2 h (MCP-1) [pg/mL] | MCP-1 at 24 h (MCP-1) [pg/mL] | In vitro Expression (Mean) (Hep G2 cells [2]) | In vitro cell viability (%) (Mean) (Hep G2 cells [4]) | Liver (p/s) (Mean) (Balb/c mice) | Spleen (p/s) (Mean) (Balb/c mice) | Whole body (p/s) (Mean) (Balb/c mice) | IL-6 at 2 h (IL-6) [pg/mL] | IL-6 at 24 h (IL-6) [pg/mL]
1 | CCCCC/C=C\C/C=C\CCCCCCCCOC(=O)NC(COC(=O)NCCN1CCCCCC1)C(=O)OCCCCCC(=O)OCCCCCCCCCCC (stereo not drawn) [Lipid 939] | 104.00 | 0.19 | 90.23 | 1.21E+07 | 1.70E+08 | 5.86E+07 | 4.96E+08 | 1.18E+08 | 3.50E+09 | 2440 | 956 | 3.08E+05 | 95.74 | 2.92E+08 | 1.74E+08 | 1.17E+09 | 4280 | 9.43
2 | CCCCC/C=C\C/C=C\CCCCCCCCOC(=O)NC(COC(=O)NCCN1CCCCCC1)C(=O)OCCCCCCCOC(=O)CCCCCCCCC (stereo not drawn) [Lipid 944] | 86.75 | 0.17 | 90.80 | 1.54E+07 | 5.53E+07 | 5.27E+08 | 1.93E+08 | 4.76E+08 | 1.06E+09 | 3640 | 161 | 3.60E+05 | 95.62 | 5.10E+08 | 1.31E+08 | 1.29E+09 | 432 | 2.5
3 | CCCCC/C=C\C/C=C\CCCCCCCCOC(=O)NC(COC(=O)NCCN1CCCCCC1)C(=O)OCCCCCCCCCC(=O)OCCCCCCC (stereo not drawn) [Lipid 959] | 91.09 | 0.13 | 95.49 | 1.10E+07 | 3.10E+07 | 1.10E+09 | 1.43E+08 | 4.52E+08 | 7.04E+08 | 1760 | 176 | 2.95E+05 | 96.03 | 1.07E+09 | 2.04E+08 | 3.16E+09 | 78.7 | 1.8

Second part, led by results:

Row | Size (nm) [1] [nm] | PDI [1] | EE (%) [3] [%] | Compound | Kidney (p/s) (C57BL/6J mice) | Large intestine (p/s) (C57BL/6J mice) | Liver (p/s) (C57BL/6J mice) | Small intestine (p/s) (C57BL/6J mice) | Spleen (p/s) (C57BL/6J mice) | Whole body (p/s) (C57BL/6J mice) | MCP-1 at 2 h (MCP-1) [pg/mL] | MCP-1 at 24 h (MCP-1) [pg/mL] | In vitro Expression (Mean) (Hep G2 cells [2]) | In vitro cell viability (%) (Mean) (Hep G2 cells [4]) | Liver (p/s) (Mean) (Balb/c mice) | Spleen (p/s) (Mean) (Balb/c mice) | Whole body (p/s) (Mean) (Balb/c mice) | IL-6 at 2 h (IL-6) [pg/mL] | IL-6 at 24 h (IL-6) [pg/mL]
4 | 67.82 | 0.01 | 95.55 | CCCCCCCCC(CCCCCC)C(=O)OCCCCCCCCOC(=O)NC(COC(=O)NCCN1CCCCCC1)C(=O)OCCCCCCCCCCC(=O)OCCCCCC (stereo not drawn) [Lipid 929] | 2.14E+07 | 9.97E+07 | 3.67E+09 | 3.16E+08 | 4.12E+08 | 2.83E+09 | 783 | 58.6 | 2.24E+05 | 100.37 | 2.99E+08 | 5.00E+07 | 1.02E+09 | 14.7 | 2.1
5 | 75.47 | 0.02 | 92.12 | CCCCCCCCCC(=O)OCCCCCCCOC(=O)C(COC(=O)NCCN1CCCCC1)NC(=O)OCCCCCCCCOC(=O)C(CCCCCC)CCCCCCCC (stereo not drawn) [Lipid 933] | 6.08E+07 | 9.52E+07 | 3.90E+09 | 6.36E+08 | 5.98E+08 | 3.45E+09 | 1240 | 300 | 1.26E+06 | 95.05 | 6.92E+08 | 1.49E+08 | 2.89E+09 | 68.4 | 8.03
6 | 83.18 | 0.01 | 88.46 | CCCCC/C=C\CCOC(=O)CCCCCOC(=O)C(COC(=O)NCCN1CCCCC1)NC(=O)OCCCCCCCCOC(=O)C(CCCCCC)CCCCCCCC (stereo not drawn) [Lipid 954] | 1.53E+08 | 9.03E+08 | 3.01E+09 | 1.69E+09 | 7.74E+08 | 1.08E+10 | 4780 | 789 | 4.78E+05 | 93.41 | 8.01E+08 | 9.82E+07 | 2.71E+09 | 4220 | 8.87
